Where a SMILES comes first, the peptide text is derived from it. [ ]: non-standard residue; d: D form. Nva = CCC[C@H](N)C(=O)O
Molecular target: T1, Genome polyprotein [1027-1206,R1052K]/[1678-1691] (Hepatitis C virus genotype 1b (isolate Japanese), UniProt P26662+Q9WMX2, R1052K)
T1 construct: 1027-1206; 1678-1691
Experiment: HCV Protease Inhibition Assay
Conditions: pH 7.5; 23 °C

T1 sequence (Q9WMX2 1027-1206, looked up, stated change not applied, other chains not shown): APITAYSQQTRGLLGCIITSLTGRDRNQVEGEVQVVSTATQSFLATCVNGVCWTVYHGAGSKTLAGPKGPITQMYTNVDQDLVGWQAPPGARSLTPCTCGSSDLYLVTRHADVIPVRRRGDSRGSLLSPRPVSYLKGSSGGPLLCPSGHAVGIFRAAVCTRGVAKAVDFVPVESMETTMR

Compound: CCC[C@H](NC(=O)[C@@H]1CCCN1C(=O)[C@@H](NC(=O)[C@@H](NC(=O)[C@H](CC(=O)O)NC(=O)[C@H](CC(=O)O)NC(C)=O)[C@@H](C)CC)C(C)C)C(=O)O [(2S)-2-{[(2S)-1-[(2S)-2-[(2S)-2-[(3S)-3-[(3S)-3-acetamido-3-formamidopropanoic acid]-3-formamidopropanoic acid]-3-methylpentanamido]-3-methylbutanoyl]pyrrolidin-2-yl]formamido}pentanoic acid] (Ac-DDIVP[Nva]-OH)
- IC50: 150 µM
